In experiment [1] the target is Apoptosis regulator Bcl-2 (Homo sapiens) (UniProt P10415). In words: Effect on DEVD cleavage by DEVDase assay with anti-Fas antibody treatment using Bcl-2 overexpressing HeLa cells; 3 fold activation concentration (AC3). The experiment is classed as functional, cell-based.
Experiment [2] has as its system HeLa. The experiment can be described thus: Evaluated for HeLa cell viability without anti-Fas antibody treatment by XTT assay; 3 fold activation concentration (AC3). It is filed as functional, Homo sapiens. (Formazan colour is commonly taken as a measure of viable cells.)
A further experiment concerns Bacillus subtilis. The experiment can be described thus: Antibacterial activity was evaluated against Bacillus subtilis. The experiment is classed as functional.
The target in experiment [3] is Apoptosis regulator Bcl-2 (Homo sapiens) (UniProt P10415). The experiment can be described thus: Effect on DEVD cleavage by DEVDase assay without anti-Fas antibody using Bcl-2 overexpressing HeLa cells; 3 fold activation concentration (AC3). The experiment is classed as functional, cell-based.
Experiment [4] deals with HeLa. The experiment can be described thus: Evaluated for HeLa cell viability with anti-Fas antibody treatment by XTT assay; 3 fold activation concentration (AC3). It is filed as functional, Homo sapiens.

SMILES strings stand for the structures. ≈ marks a conversion by molar mass, not a printed value. A value given as a limit tells only on which side of the number the result lay.

Apoptosis regulator Bcl-2 (Homo sapiens), sequence (P10415 whole entry): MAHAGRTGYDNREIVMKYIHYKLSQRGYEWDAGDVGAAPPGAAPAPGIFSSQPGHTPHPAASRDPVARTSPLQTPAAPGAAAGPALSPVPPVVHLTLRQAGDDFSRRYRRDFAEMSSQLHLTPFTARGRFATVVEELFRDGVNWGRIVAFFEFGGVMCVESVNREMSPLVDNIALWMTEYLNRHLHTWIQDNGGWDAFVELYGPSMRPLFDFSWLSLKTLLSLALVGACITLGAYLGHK

As to `COC(=O)NC1[C@H](C)O[C@@H](O[C@H]2C/C=C(\C)[C@@H]3C=C[C@@H]4[C@@H](OC5C[C@H](O[C@@H]6CCC(OC7C[C@H](O)[C@@H](OC8CC[C@@H](O)C(C)O8)C(C)O7)[C@H](C)O6)[C@@H](OC(C)=O)C(C)O5)[C@@H](C)C[C@H](C)[C@H]4[C@]3(C)C(=O)C3=C(OC)[C@@]4(CC(C=O)=CC(O)[C@H]4/C=C\2C)OC3=O)CC1(C)[N+](=O)[O-]` (stereo not given in full), the AC3 in experiment [1] turned out to be 1 µM; in the experiment on HeLa [2], 1.5 µM; in experiment [3], 2.5 µM; with HeLa [4], 0.8 µM. For the same compound, in the experiment on Bacillus subtilis, the minimum inhibitory concentration (MIC) (usually the lowest concentration that inhibits growth of the organism) came out at 5.2 µg/mL (≈ 3.92 µM).

With `COC(=O)NC1[C@H](C)O[C@@H](O[C@H]2C/C=C(\C)[C@@H]3C=C[C@@H]4[C@@H](O)[C@@H](C)C[C@H](C)[C@H]4[C@]3(C)/C(O)=C3\C(=O)O[C@]4(CC(C=O)=C[C@H](O[Si](C)(C)C(C)(C)C)[C@H]4/C=C\2C)C3=O)CC1(C)[N+](=O)[O-]` (stereo not given in full), the AC3 (in experiment [1]; in the experiment on HeLa [2]; in experiment [3]; in the experiment on HeLa [4]) was above 10 µM each time. In the experiment on Bacillus subtilis, this compound displayed an MIC above 50 µg/mL.

For `COC(=O)NC1[C@H](C)O[C@@H](O[C@H]2C/C=C(\C)[C@@H]3C=C[C@@H]4[C@@H](O[C@@H]5CC(OC(C)=O)C(OC(C)=O)[C@H](C)O5)[C@@H](C)C[C@H](C)[C@H]4[C@]3(C)/C(O)=C3\C(=O)O[C@]4(CC(C=O)=C[C@H](OC(C)=O)[C@H]4/C=C\2C)C3=O)CC1(C)[N+](=O)[O-]` (stereo not given in full), the AC3 was 2.1 µM in experiment [1], above 10 µM in the experiment with HeLa [2], above 10 µM in experiment [3] and 1.1 µM in the experiment on HeLa [4]. In the experiment with Bacillus subtilis, this compound yielded a minimal inhibitory concentration (MIC) of 16.7 µg/mL (≈ 16.1 µM).

For the compound `COC(=O)NC1[C@H](C)O[C@@H](O[C@H]2C/C=C(\C)[C@@H]3C=C[C@@H]4[C@@H](OC5C[C@H](O[C@@H]6CCC(OC7C[C@H](O)[C@@H](OC8CC[C@@H](O)C(C)O8)C(C)O7)[C@H](C)O6)[C@@H](OC(C)=O)C(C)O5)[C@@H](C)C[C@H](C)[C@H]4[C@]3(C)/C(O)=C3\C(=O)O[C@]4(CC(C=O)=CC(O)[C@H]4/C=C\2C)C3=O)CC1(C)[N+](=O)[O-]` (stereo not given in full), the AC3 in experiment [1] was determined as 2.2 µM; with HeLa [2], 4 µM; in experiment [3], 7.7 µM; in the experiment on HeLa [4], 1.4 µM. In the experiment on Bacillus subtilis, this compound yielded an MIC below 0.049 µg/mL.

Take `COCCOCCOCC(=O)O[C@@H]1[C@H]2C=C[C@H]3/C(C)=C/C[C@H](O[C@H]4CC(C)([N+](=O)[O-])C(NC(=O)OC)[C@H](C)O4)/C(C)=C\[C@@H]4[C@@H](O[Si](C)(C)C(C)(C)C)C=C(C=O)C[C@]45OC(O)=C(C(=O)[C@@]3(C)[C@@H]2[C@@H](C)C[C@@H]1C)C5=O` (stereo not given in full): the AC3 in experiment [1] is 9.5 µM; in the experiment on HeLa [2], 6.4 µM; in experiment [3] it was above 10 µM; in the experiment on HeLa [4], 3.9 µM. The compound further yielded a minimum inhibitory concentration (MIC) with Bacillus subtilis above 50 µg/mL.

As for `COCCOCCOCC(=O)O[C@@H]1[C@H]2C=C[C@H]3/C(C)=C/C[C@H](O[C@H]4CC(C)([N+](=O)[O-])C(NC(=O)OC)[C@H](C)O4)/C(C)=C\[C@@H]4[C@@H](O)C=C(C=O)C[C@]45OC(O)=C(C(=O)[C@@]3(C)[C@@H]2[C@@H](C)C[C@@H]1C)C5=O` (stereo not given in full), the AC3 (in experiment [1]; with HeLa [2]; in experiment [3]; with HeLa [4]) was above 10 µM in each case. This compound registered a minimal inhibitory concentration (MIC) in the experiment with Bacillus subtilis above 50 µg/mL.

On to `COC(=O)NC1[C@H](C)O[C@@H](O[C@H]2C/C=C(\C)[C@@H]3C=C[C@@H]4[C@@H](OCc5ccc(OC)cc5)[C@@H](C)C[C@H](C)[C@H]4[C@]3(C)/C(O)=C3\C(=O)O[C@]4(CC(C=O)=C[C@H](OC(C)=O)[C@H]4/C=C\2C)C3=O)CC1(C)[N+](=O)[O-]` (stereo not given in full), for which the AC3 in experiment [1] came to 3.8 µM; in the experiment on HeLa [2] it was 5.8 µM; in experiment [3], 4.8 µM; in the experiment on HeLa [4], 7.6 µM. The same compound registered an MIC against Bacillus subtilis above 50 µg/mL.

Consider `COC(=O)NC1[C@H](C)O[C@@H](O[C@H]2C/C=C(\C)[C@@H]3C=C[C@@H]4[C@@H](OC5(C)O[C@@H]6OC(COC(C)=O)[C@@H](OC(C)=O)C(OC(C)=O)[C@@H]6O5)[C@@H](C)C[C@H](C)[C@H]4[C@]3(C)/C(O)=C3\C(=O)O[C@]4(CC(C=O)=C[C@H](OC(C)=O)[C@H]4/C=C\2C)C3=O)CC1(C)[N+](=O)[O-]` (stereo not given in full), for which the AC3 was 5.7 µM in experiment [1], above 10 µM in the experiment on HeLa [2], above 10 µM in experiment [3] and 1.8 µM with HeLa [4]. The MIC with Bacillus subtilis was above 50 µg/mL.

Take `COC(=O)NC1[C@H](C)O[C@@H](O[C@H]2C/C=C(\C)[C@@H]3C=C[C@@H]4[C@@H](O[Si](C)(C)C(C)(C)C)[C@@H](C)C[C@H](C)[C@H]4[C@]3(C)/C(O)=C3\C(=O)O[C@]4(CC(C=O)=C[C@H](O)[C@H]4/C=C\2C)C3=O)CC1(C)[N+](=O)[O-]` (stereo not given in full): the AC3 in experiment [1] came out at 1.3 µM; in the experiment on HeLa [2], 2 µM; in experiment [3], 1.8 µM; in the experiment with HeLa [4] it was 2 µM. This compound also showed an MIC against Bacillus subtilis above 50 µg/mL.

With `COC(=O)NC1[C@H](C)O[C@@H](O[C@H]2C/C=C(\C)[C@@H]3C=C[C@@H]4[C@@H](OC5C=C[C@H](O)[C@H](C)O5)[C@@H](C)C[C@H](C)[C@H]4[C@]3(C)/C(O)=C3\C(=O)O[C@]4(CC(C=O)=C[C@H](OC(C)=O)[C@H]4/C=C\2C)C3=O)CC1(C)[N+](=O)[O-]` (stereo not given in full), the AC3 in experiment [1] was 3.6 µM; in the experiment on HeLa [2] it was above 10 µM; in experiment [3], above 10 µM; in the experiment on HeLa [4], 3.7 µM. This compound had an MIC with Bacillus subtilis above 50 µg/mL.

On to `CC[Si](CC)(CC)OO[C@H]1C=CC(O[C@@H]2[C@H]3C=C[C@H]4/C(C)=C/C[C@H](O[C@H]5CC(C)([N+](=O)[O-])C(NC(=O)OC)[C@H](C)O5)/C(C)=C\[C@@H]5[C@@H](OC(C)=O)C=C(C=O)C[C@]56OC(O)=C(C(=O)[C@@]4(C)[C@@H]3[C@@H](C)C[C@@H]2C)C6=O)O[C@H]1C` (stereo not given in full), for which the AC3 in experiment [1] is 4.9 µM; with HeLa [2], above 10 µM; in experiment [3] it was above 10 µM; in the experiment on HeLa [4], 4.3 µM. The MIC against Bacillus subtilis is above 50 µg/mL.

For the compound `COC(=O)NC1[C@H](C)O[C@@H](O[C@H]2C/C=C(\C)[C@@H]3C=C[C@@H]4[C@@H](O)[C@@H](C)C[C@H](C)[C@H]4[C@]3(C)/C(O)=C3\C(=O)O[C@]4(CC(C=O)=C[C@H](OC(C)=O)[C@H]4/C=C\2C)C3=O)CC1(C)[N+](=O)[O-]` (stereo not given in full), the AC3 in experiment [1] was 8.4 µM; in the experiment with HeLa [2] it was above 10 µM; in experiment [3] it was above 10 µM; in the experiment with HeLa [4] it was above 10 µM. For the same compound, the minimal inhibitory concentration (MIC) with Bacillus subtilis was above 50 µg/mL.

As for `COC(=O)NC1[C@H](C)O[C@@H](O[C@H]2C/C=C(\C)[C@@H]3C=C[C@@H]4[C@@H](O[Si](C)(C)C(C)(C)C)[C@@H](C)C[C@H](C)[C@H]4[C@]3(C)/C(O)=C3\C(=O)O[C@]4(CC(C=O)=C[C@H](O[Si](C)(C)C(C)(C)C)[C@H]4/C=C\2C)C3=O)CC1(C)[N+](=O)[O-]` (stereo not given in full), the AC3 (in experiment [1]; in the experiment on HeLa [2]; in experiment [3]; with HeLa [4]) was above 10 µM throughout. For the same compound, in the experiment with Bacillus subtilis, the MIC was above 50 µg/mL.

As for `COC(=O)NC1[C@H](C)O[C@@H](O[C@H]2C/C=C(\C)[C@@H]3C=C[C@@H]4[C@@H](O)[C@@H](C)C[C@H](C)[C@H]4[C@]3(C)/C(O)=C3\C(=O)O[C@]4(CC(C=O)=C[C@H](O)[C@H]4/C=C\2C)C3=O)CC1(C)[N+](=O)[O-]` (stereo not given in full), the AC3 (in experiment [1]; in the experiment with HeLa [2]; in experiment [3]; with HeLa [4]) was above 10 µM in each case. The same compound displayed an MIC with Bacillus subtilis above 50 µg/mL.

In the case of `COC(=O)NC1[C@H](C)O[C@@H](O[C@H]2C/C=C(\C)[C@@H]3C=C[C@@H]4[C@@H](O[C@H]5CCCCO5)[C@@H](C)C[C@H](C)[C@H]4[C@]3(C)/C(O)=C3\C(=O)O[C@]4(CC(C=O)=C[C@H](OC(C)=O)[C@H]4/C=C\2C)C3=O)CC1(C)[N+](=O)[O-]` (stereo not given in full), the AC3 in experiment [1] is 3.9 µM; with HeLa [2], 4.8 µM; in experiment [3] it was 4.9 µM; in the experiment on HeLa [4], 3.9 µM. Further, the minimum inhibitory concentration (MIC) against Bacillus subtilis worked out at 6.3 µg/mL (≈ 6.93 µM).

These data come from ChEMBL document CHEMBL1134418, “Synthesis of tetrocarcin derivatives with specific inhibitory activity towards Bcl-2 functions” (2001).
